Measured values taken from PubChem BioAssay AID1413 (The Scripps Research Institute Molecular Screening Center, 2008).
Active and inactive are the calls of the source.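 How the source made its calls: active means CC50, the dose killing half the cells, at or below 10 µM, by curve fit or manual estimate; inactive means CC50 above 10 µM.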

These compounds were tested on HeLa viability, CellTiter-Glo ATP luminescence (assay: HeLa cell cytotoxicity, dose response, cytotoxicity control for Wee1 degradation inhibitor project, CellTiter-Glo luminescence (AID 1413)).

| SMILES | CC50 |
| --- | --- |
| CCCCS(=O)(=O)/C=C\C=C/S(=O)(=O)CCCC | > 16.6 µM (inactive) |
| Cn1cccc1/C=C1\SC(=Nc2ccccc2)NC1=O | > 49.8 µM (inactive) |
| O=C1C=CC(O)(c2cc(=O)c3c(O)cc(O)cc3o2)C=C1 | > 49.8 µM (inactive) |
| C=CS(=O)(=O)c1ccc(Oc2ccc(S(=O)(=O)C=C)cc2)cc1 | > 49.8 µM (inactive) |
| O=[N+]([O-])c1ccc(Sc2cccc[n+]2[O-])c2nonc12 | 6.76 µM |
| O=C(COc1ccc(C(=O)c2ccc(F)cc2)cc1)NCc1ccc(F)cc1 | > 49.8 µM (inactive) |
| CCOC(=O)C1=C(c2ccccc2)O/C(=C(/C#N)C(F)(F)F)S1 | 7.17 µM |
| O=S(=O)(C/C(=C/CO)S(=O)(=O)c1ccccc1)c1ccccc1 | > 49.8 µM (inactive) |
| O=C(Nc1ccc(Cl)c(Cl)c1)Nc1nccs1 | > 49.8 µM (inactive) |
| COc1ccccc1-c1ccc(SCc2ccccc2F)nn1 | > 49.8 µM (inactive) |
| Cc1csc2sc(-c3ccnc(SCC(=O)NCc4ccccc4)n3)c(C)c12 | > 49.8 µM (inactive) |
| Cc1ccc2nc(NCc3ccccc3)[nH]c2c1 | > 49.8 µM (inactive) |
| COc1ccc(Nc2oc(-c3ccc(OC)cc3)nc2C#N)cc1 | > 49.8 µM (inactive) |
| O=C(N=Nc1c(O)[nH]c2ccc(Br)cc12)c1ccccc1-n1cccc1 | > 49.8 µM (inactive) |
| CCCC1=Nc2cc(C(=O)NCc3ccco3)ccc2Sc2ccccc21 | > 49.8 µM (inactive) |
| Cc1ccnc(NC(=O)CCCOc2cc(=O)n(C)c3ccccc23)c1 | > 49.8 µM (inactive) |
| CCN(CC)c1ccc(/C=N/NC(=O)c2cnccn2)cc1 | > 49.8 µM (inactive) |
| COc1ccc(NC(=O)/C(Cl)=C(/Cl)S(=O)Cc2ccc(C)cc2)cn1 (stereo not drawn) | 14.5 µM (inactive) |
| COc1ccc(NC(=O)/C(Cl)=C(/Cl)S(=O)Cc2ccccc2)cn1 (stereo not drawn) | > 16.6 µM (inactive) |

| SMILES | CC50 |
| --- | --- |
| COc1cccc(/C=N/NC(=O)c2cc3c(OC)c(OC)ccc3[nH]2)c1OC | > 49.8 µM (inactive) |
| COC(=O)C1CCN(C(=O)/C=C/c2ccc(OC)cc2)CC1 | > 49.8 µM (inactive) |
| COc1cc(C2=NOC(C(=O)NCc3cccs3)C2)cc(OC)c1OC (stereo not drawn) | > 49.8 µM (inactive) |
| COc1ccc(/C=N/NC(=O)c2ccc3ccccc3c2)cc1OS(=O)(=O)c1ccc(NC(C)=O)cc1 | > 49.8 µM (inactive) |
| CCOC(=O)N1CCN(C(=O)c2cc(-c3ccc(OCC)cc3)nc3ccccc23)CC1 | > 49.8 µM (inactive) |
| O=c1[nH]c2ccccc2nc1/C=C(\O)c1cccs1 | > 49.8 µM (inactive) |
| CCOc1cccc(N(C(=O)Cc2cccs2)C(C(=O)NC2CCCCC2)c2cccn2C)c1 (stereo not drawn) | > 49.8 µM (inactive) |
| Cc1ccc(/C=N/NC(=O)c2ccc3c(c2)OCCO3)s1 | > 49.8 µM (inactive) |
| O=C(/C=C/c1cccnc1)/C=C/c1cccnc1 | > 49.8 µM (inactive) |
| Cc1cccn2c1nc(=S)n2C(=O)c1ccco1 | > 49.8 µM (inactive) |
| COc1cccc(C2=CC(c3cccc(OC)c3OC)n3nnnc3N2)c1 (stereo not drawn) | > 49.8 µM (inactive) |
| CC(=O)Nc1ccc(/C=N/Nc2nc3ccccc3s2)cc1 | > 49.8 µM (inactive) |
| On1onc2c3cc(-c4ccccc4)nc3ccc21 | > 49.8 µM (inactive) |
| Cc1ccc(Nc2cc(C)nn2-c2nc(C)cc(=O)[nH]2)cc1 | > 49.8 µM (inactive) |
| CCN(CC)c1ccc(/C=N/NC(=O)c2ccco2)cc1 | > 49.8 µM (inactive) |
| CCN(CC)S(=O)(=O)c1ccc(C(=O)NCCc2ccccn2)cc1 | > 49.8 µM (inactive) |
| Cc1cc(Cl)ccc1NC(=S)Nc1ccccn1 | > 49.8 µM (inactive) |
| Cc1nc2ccccn2c1-c1csc(Nc2cccc(O)c2)n1 | > 49.8 µM (inactive) |
| O=C(/C=C/c1ccccc1)Nc1ccc(Cl)cn1 | > 49.8 µM (inactive) |
